≈ marks a conversion by molar mass, not a printed value. Read-outs that look alike come from different tables or passages of the source. Residues, ends and D or L forms follow the SMILES beside them.
How the values were obtained:
[1] = test system: endosomal acidification in MDCK cells; assay: Endosomal acidification analysis in live cells; format: cell-based, canine; settings: pHrodo Red dextran, P1 25.0 μg ml-1, TAT-P1 3.1 μg ml-1, bafilomycin A1 100.0 nM, PA1 25.0 μg ml-1
A(H1N1)pdm09 virus [2] = format: cell-based
[3] = target: viral HA protein (H1N1 glycoprotein HA1) (Influenza A virus, UniProt C3W5S1); settings: ELISA (peptide 0.1 μg per well, HA1 2 μg ml-1) and western blot (peptide 1 μg)
MDCK cells = assay: MTT cytotoxicity assay in MDCK cells; settings: 24 h incubation at 37 °C, DMEM with 1% FBS, three independent experiments
293T cells [4] = assay: MTT cytotoxicity assay in 293T cells; settings: 24 h incubation at 37 °C, DMEM with 1% FBS, three independent experiments
A(H7N7) virus [5] = settings: 1 h, pH 7.4
[6] = test system: HA-mediated membrane fusion (H7N7 HA in 293T cells); settings: pH 5
293T cells [7] = test system: 293T cells
A(H7N7) virus [8] = test system: A(H7N7) virus; parameters: species or system BALB/c female mice; settings: mouse, in vivo
A(H1N1)pdm09 virus [9] = settings: 1 h, pH 7.4
endosomal acidification = settings: cited from earlier work
A(H1N1)pdm09 virus [10] = test system: A(H1N1)pdm09 virus; parameters: species or system BALB/c female mice; settings: in vivo
A(H1N1)pdm09 virus [11] = test system: A(H1N1)pdm09 virus; parameters: species or system BALB/c female mice; settings: mouse, in vivo
A(H7N7) virus [12] = format: cell-based

viral HA protein (H1N1 glycoprotein HA1), sequence (C3W5S1 18-344 limits assumed): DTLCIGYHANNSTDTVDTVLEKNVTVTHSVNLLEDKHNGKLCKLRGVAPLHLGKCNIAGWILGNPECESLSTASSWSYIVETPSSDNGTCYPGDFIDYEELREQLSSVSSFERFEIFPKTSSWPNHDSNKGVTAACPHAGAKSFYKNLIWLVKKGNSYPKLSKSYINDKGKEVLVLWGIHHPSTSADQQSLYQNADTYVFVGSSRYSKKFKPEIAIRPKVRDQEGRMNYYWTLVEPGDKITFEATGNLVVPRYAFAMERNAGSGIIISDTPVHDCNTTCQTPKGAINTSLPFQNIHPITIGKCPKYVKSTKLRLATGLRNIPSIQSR

Compound: CO/C1=C\C(C)=C\[C@@H](C)[C@@H](O)[C@@H](C)C/C(C)=C/C=C/[C@H](OC)[C@@H]([C@@H](C)[C@@H](O)[C@H](C)[C@@]2(O)C[C@@H](O)[C@H](C)[C@@H](C(C)C)O2)OC1=O [Bafilomycin A1, reference compound]
- prevention of endosomal acidification [1]: prevented endosomal acidification
- block of viral RNP release into the nuclei (A(H1N1)pdm09 virus [2]): blocked viral RNP release into the nuclei

Compound: CC[C@H](C)[C@H](NC(=O)[C@H](CCC(N)=O)NC(=O)[C@H](CCCNC(=N)N)NC(=O)[C@H](Cc1ccccc1)NC(=O)[C@H](C)NC(=O)[C@@H](NC(=O)[C@@H]1CCCN1C(=O)[C@H](CS)NC(=O)[C@@H]1CCCN1C(=O)CNC(=O)[C@H](Cc1c[nH]c2ccccc12)NC(=O)[C@@H](N)CS)[C@@H](C)O)C(=O)NCC(=O)N[C@@H](CC(N)=O)C(=O)N[C@@H](CS)C(=O)NCC(=O)N[C@@H](CCCNC(=N)N)C(=O)N[C@@H](Cc1ccccc1)C(=O)N[C@@H](CCCNC(=N)N)C(=O)N[C@H](C(=O)N[C@@H](CCCNC(=N)N)C(=O)N[C@@H](CS)C(=O)N[C@@H](CS)C(=O)N[C@@H](CCCNC(=N)N)C(=O)N[C@H](C(=O)N[C@@H](CCCNC(=N)N)C(=O)O)[C@@H](C)CC)C(C)C [P1] (H-CWGPCPTAFRQIGNCGRFRVRCCRIR-OH)
- prevention of endosomal acidification [1]: prevented endosomal acidification
- inhibition of viral replication in 293T cells (H7N7 virus): significantly inhibit viral replication
- binding to viral HA protein [3]: bind to viral HA protein
- CC50 (MDCK) (MDCK cells): > 400 µg/mL
- CC50 (293T) (293T cells [4]): > 400 µg/mL
- IC50 (H7N7) (A(H7N7) virus [5]): 1.56 µg/mL (≈ 0.51 µM)
- block of viral RNP release into the nuclei (A(H1N1)pdm09 virus [2]): blocked viral RNP release into the nuclei
- inhibition of HA-mediated membrane fusion [6]: did not inhibit HA-mediated membrane fusion
- concentration that significantly enhances the transfection efficiency of plasmid DNA (293T cells [7]): 12.5

Compound: N=C(N)NCCC[C@H](NC(=O)[C@H](CCCNC(=N)N)NC(=O)[C@H](CCCNC(=N)N)NC(=O)[C@H](CCC(N)=O)NC(=O)[C@H](CCCNC(=N)N)NC(=O)[C@H](CCCNC(=N)N)NC(=O)[C@H](CCCCN)NC(=O)[C@H](CCCCN)NC(=O)[C@H](CCCNC(=N)N)NC(=O)CNC(=O)[C@@H](N)Cc1ccc(O)cc1)C(=O)O [TAT, reference compound]
- CC50 (MDCK) (MDCK cells): > 400 µg/mL
- CC50 (293T) (293T cells [4]): > 400 µg/mL

Compound: CC[C@H](C)[C@H](NC(=O)[C@H](CCC(N)=O)NC(=O)[C@H](CCCNC(=N)N)NC(=O)[C@H](Cc1ccccc1)NC(=O)[C@H](C)NC(=O)[C@@H](NC(=O)[C@@H]1CCCN1C(=O)[C@H](CS)NC(=O)[C@@H]1CCCN1C(=O)CNC(=O)[C@H](Cc1c[nH]c2ccccc12)NC(=O)[C@H](CS)NC(=O)[C@H](CCCNC(=N)N)NC(=O)[C@H](CCCNC(=N)N)NC(=O)[C@H](CCCNC(=N)N)NC(=O)[C@H](CCC(N)=O)NC(=O)[C@H](CCCNC(=N)N)NC(=O)[C@H](CCCNC(=N)N)NC(=O)[C@H](CCCCN)NC(=O)[C@H](CCCCN)NC(=O)[C@H](CCCNC(=N)N)NC(=O)CNC(=O)[C@@H](N)Cc1ccc(O)cc1)[C@@H](C)O)C(=O)NCC(=O)N[C@@H](CC(N)=O)C(=O)N[C@@H](CS)C(=O)NCC(=O)N[C@@H](CCCNC(=N)N)C(=O)N[C@@H](Cc1ccccc1)C(=O)N[C@@H](CCCNC(=N)N)C(=O)N[C@H](C(=O)N[C@@H](CCCNC(=N)N)C(=O)N[C@@H](CS)C(=O)N[C@@H](CS)C(=O)N[C@@H](CCCNC(=N)N)C(=O)N[C@H](C(=O)N[C@@H](CCCNC(=N)N)C(=O)O)[C@@H](C)CC)C(C)C [TAT-P1] (H-YGRKKRRQRRRCWGPCPTAFRQIGNCGRFRVRCCRIR-OH)
- prevention of endosomal acidification [1]: prevented endosomal acidification
- inhibition of viral replication in 293T cells (H7N7 virus): significantly inhibit viral replication
- binding to viral HA protein [3]: bind to viral HA protein
- survival (A(H7N7) virus [8]): 30%
- weight ratio (peptide:DNA) at which complexes with DNA form (plasmid DNA): > 2
- IC50 (H7N7) (A(H7N7) virus [5]): 0.56 µg/mL (≈ 0.122 µM)
- block of viral RNP release into the nuclei (A(H1N1)pdm09 virus [2]): blocked viral RNP release into the nuclei
- inhibition of HA-mediated membrane fusion [6]: did not inhibit HA-mediated membrane fusion
- IC50 (H1N1) (A(H1N1)pdm09 virus [9]): 0.67 µg/mL (≈ 0.146 µM)

Compound: CC[C@H](C)[C@H](NC(=O)[C@H](CCCNC(=N)N)NC(=O)[C@H](CS)NC(=O)[C@H](CS)NC(=O)[C@H](CCCNC(=N)N)NC(=O)[C@@H](NC(=O)[C@H](CCCNC(=N)N)NC(=O)[C@H](Cc1ccccc1)NC(=O)[C@H](CCCNC(=N)N)NC(=O)CNC(=O)[C@H](CS)NC(=O)[C@H](CC(N)=O)NC(=O)[C@H](CCCNC(=N)N)NC(=O)[C@H](CCCCN)NC(=O)[C@H](CCCNC(=N)N)NC(=O)[C@H](Cc1ccccc1)NC(=O)[C@H](C)NC(=O)[C@H](CCCNC(=N)N)NC(=O)[C@@H]1CCCN1C(=O)[C@H](CS)NC(=O)[C@@H]1CCCN1C(=O)[C@H](CCCNC(=N)N)NC(=O)[C@H](Cc1c[nH]c2ccccc12)NC(=O)[C@H](CS)NC(=O)[C@H](CCCNC(=N)N)NC(=O)[C@H](CCCNC(=N)N)NC(=O)[C@H](CCCNC(=N)N)NC(=O)[C@H](CCC(N)=O)NC(=O)[C@H](CCCNC(=N)N)NC(=O)[C@H](CCCNC(=N)N)NC(=O)[C@H](CCCCN)NC(=O)[C@H](CCCCN)NC(=O)[C@H](CCCNC(=N)N)NC(=O)CNC(=O)[C@@H](N)Cc1ccc(O)cc1)[C@@H](C)CC)C(=O)N[C@@H](CCCNC(=N)N)C(=O)O [TAT-P2] (H-YGRKKRRQRRRCWRPCPRAFRKRNCGRFRIRCCRIR-OH; N-terminus and C-terminus assumed)
- IC50 (H7N7) (A(H7N7) virus [5]): 0.97 µg/mL (≈ 0.204 µM)
- IC50 (H1N1) (A(H1N1)pdm09 virus [9]): 0.76 µg/mL (≈ 0.16 µM)

Compound: CC[C@H](C)[C@H](NC(=O)[C@H](CCCNC(=N)N)NC(=O)[C@H](CS)NC(=O)[C@H](CCCNC(=N)N)NC(=O)[C@@H](NC(=O)[C@H](CCCNC(=N)N)NC(=O)[C@H](Cc1ccccc1)NC(=O)[C@H](CCCNC(=N)N)NC(=O)CNC(=O)[C@H](CS)NC(=O)[C@H](CC(C)C)NC(=O)[C@H](CCC(N)=O)NC(=O)[C@H](CCCNC(=N)N)NC(=O)[C@H](Cc1ccccc1)NC(=O)[C@H](CO)NC(=O)[C@@H]1CCCN1C(=O)[C@H](CS)NC(=O)[C@@H]1CCCN1C(=O)[C@H](CCCNC(=N)N)NC(=O)[C@H](Cc1c[nH]c2ccccc12)NC(=O)[C@H](CS)NC(=O)[C@H](CCCNC(=N)N)NC(=O)[C@H](CCCNC(=N)N)NC(=O)[C@H](CCCNC(=N)N)NC(=O)[C@H](CCC(N)=O)NC(=O)[C@H](CCCNC(=N)N)NC(=O)[C@H](CCCNC(=N)N)NC(=O)[C@H](CCCCN)NC(=O)[C@H](CCCCN)NC(=O)[C@H](CCCNC(=N)N)NC(=O)CNC(=O)[C@@H](N)Cc1ccc(O)cc1)[C@@H](C)CC)C(=O)N[C@@H](CCCNC(=N)N)C(=O)O [TAT-P3] (H-YGRKKRRQRRRCWRPCPSFRQLCGRFRIRCRIR-OH; N-terminus and C-terminus assumed)
- IC50 (H7N7) (A(H7N7) virus [5]): 0.78 µg/mL (≈ 0.179 µM)
- IC50 (H1N1) (A(H1N1)pdm09 virus [9]): 0.68 µg/mL (≈ 0.156 µM)

Compound: CCN(CC)CCCC(C)Nc1ccnc2cc(Cl)ccc12 (centres unmarked) [chloroquine]
- effective concentrations for inhibiting endosomal acidification (endosomal acidification): ~ 100 μM

Compound: CC(=O)N[C@H]1[C@H]([C@H](O)[C@H](O)CO)OC(C(=O)O)=C[C@@H]1N=C(N)N [zanamivir]
- viral titers / viral replication in mouse lungs (A(H1N1)pdm09 virus [10]): significantly reduced
- IL-6 expression in mice (A(H1N1)pdm09 virus [10]; mouse): significantly reduced
- body weight loss (A(H1N1)pdm09 virus [10]; mouse): significantly reduced
- survival (A(H1N1)pdm09 virus [10]; mouse): 90%
- survival (A(H1N1)pdm09 virus [11]): 90%
- body weight loss (A(H7N7) virus [8]): significantly less body weight loss
- survival (A(H7N7) virus [8]): 40%
- susceptibility of virus to zanamivir (A(H7N7) virus [12]): reduced susceptibility

— publication PMC6004018, “Dual-functional peptide with defective interfering genes effectively protects mice against avian and seasonal influenza” (Nature Communications, 2018)
